Consider two compounds from paper PMC9856672, “SGC-CAMKK2-1: A Chemical Probe for CAMKK2” (Cells, 2023).

One assay deals with T1, MKNK2 (Homo sapiens, UniProt Q9HBH9).
T1 construct: purchased Eurofins DiscoverX KINOMEscan
As to the kind of experiment: KINOMEscan 1 μM, MKNK2. Conditions: 1000 nM; Entrez MKNK2; read-out: Percent Control. The format is binding. From the text:
(§1) Supplement cells-12-00287-s001.zip/File S2. KinomeScan data for the CAMKK2 probe and negative control.xlsx, sheet "SGC-CAMKK2-1" | column: Percent Control

For the next assay, the target named is T2, LZK (Homo sapiens, UniProt O43283).
T2 construct: purchased Eurofins DiscoverX KINOMEscan
The experiment in a line: KINOMEscan 1 μM, LZK. It is filed as binding. To be noted: 1000 nM; Entrez MAP3K13; read-out: Percent Control.
From the text: as §1

Another assay deals with T3, ZAP70 (Homo sapiens, UniProt P43403).
T3 construct: purchased Eurofins DiscoverX KINOMEscan
T3 sequence (P43403 whole entry): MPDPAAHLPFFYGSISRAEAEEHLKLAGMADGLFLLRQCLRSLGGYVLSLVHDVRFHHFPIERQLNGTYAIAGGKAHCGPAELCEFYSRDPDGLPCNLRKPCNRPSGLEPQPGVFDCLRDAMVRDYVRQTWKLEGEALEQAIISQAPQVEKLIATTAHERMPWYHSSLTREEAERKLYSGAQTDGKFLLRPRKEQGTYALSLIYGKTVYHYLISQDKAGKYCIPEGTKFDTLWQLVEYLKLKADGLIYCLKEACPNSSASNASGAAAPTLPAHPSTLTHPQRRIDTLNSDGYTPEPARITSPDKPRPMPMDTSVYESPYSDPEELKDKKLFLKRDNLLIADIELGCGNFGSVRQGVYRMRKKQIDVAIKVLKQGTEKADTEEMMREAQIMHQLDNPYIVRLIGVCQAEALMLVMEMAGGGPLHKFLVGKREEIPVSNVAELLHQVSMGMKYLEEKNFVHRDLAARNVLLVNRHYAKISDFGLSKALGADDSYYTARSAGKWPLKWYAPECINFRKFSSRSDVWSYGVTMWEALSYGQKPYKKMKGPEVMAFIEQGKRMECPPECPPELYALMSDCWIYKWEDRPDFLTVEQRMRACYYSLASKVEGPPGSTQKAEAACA
The experiment in a line: DiscoverX KINOMEscan binding assay at 1 μM, ZAP70. Conditions: Compound Concentration 1000 nM, read-out: Percent Control.
From the text: as §1

For another assay, the target named is T4, YANK1 (Homo sapiens, UniProt Q8WU08).
T4 construct: purchased Eurofins DiscoverX KINOMEscan
As to the kind of experiment: DiscoverX KINOMEscan binding assay at 1 μM, YANK1. To be noted: YANK1 (STK32A); Compound Concentration 1000 nM; read-out: Percent Control.
From the text: as §1

Assay [1] has as its target T5, ABL1(T315I)-nonphosphorylated (Homo sapiens, UniProt P00519, T315I).
T5 construct: purchased Eurofins DiscoverX KINOMEscan
As to the kind of experiment: KINOMEscan 1 μM, ABL1(T315I)-nonphosphorylated. It is filed as binding. To be noted: 1000 nM; Entrez ABL1; read-out: Percent Control.
From the text: as §1

Another assay concerns the target T6, PLK3 (Homo sapiens, UniProt Q9H4B4).
T6 construct: purchased Eurofins DiscoverX KINOMEscan
As to the kind of experiment: DiscoverX KINOMEscan binding assay at 1 μM, PLK3. Conditions: Compound Concentration 1000 nM, read-out: Percent Control.
From the text: as §1

In the next assay the target is T7, MUSK (Homo sapiens, UniProt O15146).
T7 construct: purchased Eurofins DiscoverX KINOMEscan
The experiment in a line: KINOMEscan 1 μM, MUSK. To be noted: 1000 nM; Entrez MUSK; read-out: Percent Control. It is filed as binding.
From the text: as §1

A further assay has as its target T8, WNK4 (Homo sapiens, UniProt Q96J92).
T8 construct: purchased Eurofins DiscoverX KINOMEscan
As to the kind of experiment: DiscoverX KINOMEscan binding assay at 1 μM, WNK4. Conditions: Compound Concentration 1000 nM, read-out: Percent Control.
From the text: as §1

The next assay has as its target T9, MST3 (Homo sapiens, UniProt Q9Y6E0).
T9 construct: purchased Eurofins DiscoverX KINOMEscan
The experiment in a line: KINOMEscan 1 μM, MST3. It is filed as binding. To be noted: 1000 nM; Entrez STK24; read-out: Percent Control.
From the text: as §1

For another assay, the target named is T10, PAK7 (Homo sapiens, UniProt Q9P286).
T10 construct: purchased Eurofins DiscoverX KINOMEscan
As to the kind of experiment: DiscoverX KINOMEscan binding assay at 1 μM, PAK7. To be noted: Compound Concentration 1000 nM, read-out: Percent Control.
From the text: as §1

Assay [2] has as its target T11, RPS6KA5(Kin.Dom.2-C-terminal) (Homo sapiens, UniProt O75582).
T11 construct: RPS6KA5(Kin.Dom.2-C-terminal); purchased Eurofins DiscoverX KINOMEscan
The experiment in a line: DiscoverX KINOMEscan binding assay at 1 μM, RPS6KA5(Kin.Dom.2-C-terminal). Conditions: Compound Concentration 1000 nM, read-out: Percent Control.
From the text: as §1

The next assay has as its target T12, SYK (Homo sapiens, UniProt P43405).
T12 construct: purchased Eurofins DiscoverX KINOMEscan
As to the kind of experiment: KINOMEscan 1 μM, SYK. The format is binding. Conditions: 1000 nM; Entrez SYK; read-out: Percent Control.
From the text: as §1

In assay [3] the target is T13, ABL1(E255K)-phosphorylated (Homo sapiens, UniProt P00519, E255K).
T13 construct: purchased Eurofins DiscoverX KINOMEscan
As to the kind of experiment: KINOMEscan 1 μM, ABL1(E255K)-phosphorylated. The format is binding. To be noted: 1000 nM; Entrez ABL1; read-out: Percent Control.
From the text: as §1

Another assay concerns the target T14, TTK (Homo sapiens, UniProt P33981).
T14 construct: purchased Eurofins DiscoverX KINOMEscan
As to the kind of experiment: DiscoverX KINOMEscan binding assay at 1 μM, TTK. To be noted: Compound Concentration 1000 nM, read-out: Percent Control.
From the text: as §1

The next assay deals with T15, FAK (Homo sapiens, UniProt Q05397).
T15 construct: purchased Eurofins DiscoverX KINOMEscan
T15 sequence (Q05397 whole entry): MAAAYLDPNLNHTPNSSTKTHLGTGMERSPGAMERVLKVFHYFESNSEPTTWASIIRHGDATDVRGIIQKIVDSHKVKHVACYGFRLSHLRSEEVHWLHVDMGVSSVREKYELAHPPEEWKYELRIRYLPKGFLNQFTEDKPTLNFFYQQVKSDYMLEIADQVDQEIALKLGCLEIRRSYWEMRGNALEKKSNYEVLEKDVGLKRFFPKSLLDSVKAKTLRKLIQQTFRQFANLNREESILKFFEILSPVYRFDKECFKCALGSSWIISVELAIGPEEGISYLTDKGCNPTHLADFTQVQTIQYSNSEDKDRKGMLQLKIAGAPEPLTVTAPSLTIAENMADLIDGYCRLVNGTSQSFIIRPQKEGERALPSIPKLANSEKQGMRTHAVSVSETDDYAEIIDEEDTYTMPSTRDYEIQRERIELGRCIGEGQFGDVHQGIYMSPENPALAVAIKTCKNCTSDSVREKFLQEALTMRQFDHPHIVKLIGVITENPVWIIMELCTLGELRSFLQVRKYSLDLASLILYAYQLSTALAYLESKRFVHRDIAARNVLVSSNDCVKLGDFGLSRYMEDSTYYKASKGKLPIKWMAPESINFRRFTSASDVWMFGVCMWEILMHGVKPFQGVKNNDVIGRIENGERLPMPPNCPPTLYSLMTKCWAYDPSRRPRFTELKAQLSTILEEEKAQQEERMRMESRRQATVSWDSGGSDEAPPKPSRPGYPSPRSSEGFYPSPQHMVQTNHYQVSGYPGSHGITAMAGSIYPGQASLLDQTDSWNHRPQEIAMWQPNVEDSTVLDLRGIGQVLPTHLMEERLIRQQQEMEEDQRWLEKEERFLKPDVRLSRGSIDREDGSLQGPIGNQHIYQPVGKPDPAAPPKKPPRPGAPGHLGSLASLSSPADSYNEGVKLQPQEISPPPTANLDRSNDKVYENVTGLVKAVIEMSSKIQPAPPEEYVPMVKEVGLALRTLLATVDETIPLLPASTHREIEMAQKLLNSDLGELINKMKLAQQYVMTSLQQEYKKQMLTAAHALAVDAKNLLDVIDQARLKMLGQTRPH
As to the kind of experiment: KINOMEscan 1 μM, FAK. The format is binding. To be noted: 1000 nM; Entrez PTK2; read-out: Percent Control.
From the text: as §1

Assay [4] concerns the target T16, RPS6KA5(Kin.Dom.1-N-terminal) (Homo sapiens, UniProt O75582).
T16 construct: RPS6KA5(Kin.Dom.1-N-terminal); purchased Eurofins DiscoverX KINOMEscan
The experiment in a line: KINOMEscan binding assay at 1 μM, RPS6KA5(Kin.Dom.1-N-terminal). Conditions: Compound Concentration 1000 nM; read-out: Percent Control. From the text: (§2) Supplement cells-12-00287-s001.zip/File S2. KinomeScan data for the CAMKK2 probe and negative control.xlsx, sheet "SGC-CAMKK2-1N" | column: Percent Control

A further assay deals with T17, p38-alpha (Homo sapiens, UniProt Q16539).
T17 construct: purchased Eurofins DiscoverX KINOMEscan
T17 sequence (Q16539 whole entry): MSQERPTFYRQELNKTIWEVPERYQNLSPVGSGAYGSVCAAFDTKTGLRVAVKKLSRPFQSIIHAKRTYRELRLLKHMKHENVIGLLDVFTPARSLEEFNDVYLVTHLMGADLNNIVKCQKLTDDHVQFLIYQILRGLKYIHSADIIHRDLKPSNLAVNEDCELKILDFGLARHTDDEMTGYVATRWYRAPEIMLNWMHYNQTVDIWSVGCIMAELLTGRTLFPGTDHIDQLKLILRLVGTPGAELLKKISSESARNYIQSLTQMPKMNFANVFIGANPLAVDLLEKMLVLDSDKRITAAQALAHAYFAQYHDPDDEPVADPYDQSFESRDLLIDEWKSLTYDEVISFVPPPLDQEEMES
As to the kind of experiment: KINOMEscan at 1 μM, p38-alpha. It is filed as binding. To be noted: 1000 nM, read-out: Percent Control.
From the text: as §2

The target of a further assay is T18, PFPK5(P.falciparum) (Plasmodium falciparum, UniProt P61075).
T18 construct: purchased Eurofins DiscoverX KINOMEscan
As to the kind of experiment: KINOMEscan at 1 μM, PFPK5(P.falciparum). It is filed as binding. Conditions: 1000 nM, read-out: Percent Control.
From the text: as §2

In the next assay the target is T19, p38-gamma (Homo sapiens, UniProt P53778).
T19 construct: purchased Eurofins DiscoverX KINOMEscan
T19 sequence (P53778 whole entry): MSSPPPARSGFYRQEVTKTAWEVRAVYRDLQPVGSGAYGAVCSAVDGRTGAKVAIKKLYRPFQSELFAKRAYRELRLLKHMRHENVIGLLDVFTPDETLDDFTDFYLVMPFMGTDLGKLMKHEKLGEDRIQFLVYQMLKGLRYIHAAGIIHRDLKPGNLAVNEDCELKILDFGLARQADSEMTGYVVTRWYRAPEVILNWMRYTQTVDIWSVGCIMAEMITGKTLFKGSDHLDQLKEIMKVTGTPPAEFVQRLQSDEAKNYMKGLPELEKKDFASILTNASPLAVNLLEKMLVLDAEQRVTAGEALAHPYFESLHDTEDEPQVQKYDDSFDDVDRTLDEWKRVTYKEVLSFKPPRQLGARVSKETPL
The experiment in a line: KINOMEscan binding assay at 1 μM, p38-gamma. To be noted: Compound Concentration 1000 nM; read-out: Percent Control.
From the text: as §2

The target in another assay is T20, ITK (Homo sapiens, UniProt Q08881).
T20 construct: purchased Eurofins DiscoverX KINOMEscan
As to the kind of experiment: KINOMEscan binding assay at 1 μM, ITK. Conditions: Compound Concentration 1000 nM; read-out: Percent Control.
From the text: as §2

Assay [5] addresses T21, RPS6KA4(Kin.Dom.2-C-terminal) (Homo sapiens, UniProt O75676).
T21 construct: RPS6KA4(Kin.Dom.2-C-terminal); purchased Eurofins DiscoverX KINOMEscan
The experiment in a line: KINOMEscan at 1 μM, RPS6KA4(Kin.Dom.2-C-terminal). The format is binding. Conditions: 1000 nM, read-out: Percent Control.
From the text: as §2

Another assay has as its target T22, CAMK1 (Homo sapiens, UniProt Q14012).
T22 construct: purchased Eurofins DiscoverX KINOMEscan
The experiment in a line: KINOMEscan at 1 μM, CAMK1. To be noted: 1000 nM, read-out: Percent Control. The format is binding.
From the text: as §2

A further assay deals with T23, BRAF(V600E) (Homo sapiens, UniProt P15056, V600E).
T23 construct: purchased Eurofins DiscoverX KINOMEscan
T23 sequence (P15056 whole entry V600E): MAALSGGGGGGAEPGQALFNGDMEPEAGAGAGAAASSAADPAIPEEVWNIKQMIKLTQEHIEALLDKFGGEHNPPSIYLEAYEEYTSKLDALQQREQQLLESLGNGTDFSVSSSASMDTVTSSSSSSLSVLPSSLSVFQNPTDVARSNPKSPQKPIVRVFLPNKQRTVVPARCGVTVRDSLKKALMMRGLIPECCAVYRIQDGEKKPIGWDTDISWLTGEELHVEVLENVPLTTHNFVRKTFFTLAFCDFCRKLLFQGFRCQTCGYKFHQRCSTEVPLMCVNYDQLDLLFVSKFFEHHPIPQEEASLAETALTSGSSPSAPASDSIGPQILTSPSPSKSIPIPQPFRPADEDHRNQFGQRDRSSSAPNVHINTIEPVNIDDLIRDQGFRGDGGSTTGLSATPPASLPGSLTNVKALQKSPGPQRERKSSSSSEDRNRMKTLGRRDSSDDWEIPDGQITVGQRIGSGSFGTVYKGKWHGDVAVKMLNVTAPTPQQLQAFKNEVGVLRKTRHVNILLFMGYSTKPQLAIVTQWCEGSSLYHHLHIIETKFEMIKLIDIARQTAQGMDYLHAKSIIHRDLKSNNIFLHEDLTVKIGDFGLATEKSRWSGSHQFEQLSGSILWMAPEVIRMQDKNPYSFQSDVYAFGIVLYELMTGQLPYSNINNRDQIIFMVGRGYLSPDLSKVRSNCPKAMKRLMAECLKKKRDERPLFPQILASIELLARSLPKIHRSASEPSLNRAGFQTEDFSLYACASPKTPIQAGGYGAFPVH
As to the kind of experiment: KINOMEscan at 1 μM, BRAF(V600E). To be noted: 1000 nM, read-out: Percent Control. It is filed as binding.
From the text: as §2

The next assay addresses T24, PFTAIRE2 (Homo sapiens, UniProt Q96Q40).
T24 construct: purchased Eurofins DiscoverX KINOMEscan
The experiment in a line: KINOMEscan at 1 μM, PFTAIRE2. The format is binding. Conditions: 1000 nM, read-out: Percent Control.
From the text: as §2

Another assay concerns the target T25, CSF1R-autoinhibited (Homo sapiens, UniProt P07333).
T25 construct: purchased Eurofins DiscoverX KINOMEscan
The experiment in a line: KINOMEscan at 1 μM, CSF1R-autoinhibited. The format is binding. Conditions: 1000 nM, read-out: Percent Control.
From the text: as §2

Another assay concerns FLT3(ITD). As to the kind of experiment: KINOMEscan at 1 μM, FLT3(ITD). The format is binding, human. To be noted: 1000 nM.
From the text: as §2

The target of another assay is T26, STK33 (Homo sapiens, UniProt Q9BYT3).
T26 construct: purchased Eurofins DiscoverX KINOMEscan
As to the kind of experiment: KINOMEscan binding assay at 1 μM, STK33. Conditions: Compound Concentration 1000 nM; read-out: Percent Control.
From the text: as §2

A further assay concerns the target T27, AKT1 (Homo sapiens, UniProt P31749).
T27 construct: purchased Eurofins DiscoverX KINOMEscan
As to the kind of experiment: KINOMEscan at 1 μM, AKT1. It is filed as binding. To be noted: 1000 nM, read-out: Percent Control.
From the text: as §2

Another assay has as its target T28, TRKA (Homo sapiens, UniProt P04629).
T28 construct: purchased Eurofins DiscoverX KINOMEscan
As to the kind of experiment: KINOMEscan at 1 μM, TRKA. It is filed as binding. Conditions: 1000 nM, read-out: Percent Control.
From the text: as §2

For assay [6], the target named is T29, JAK3(JH1domain-catalytic) (Homo sapiens, UniProt P52333).
T29 construct: JAK3(JH1domain-catalytic); purchased Eurofins DiscoverX KINOMEscan
As to the kind of experiment: KINOMEscan at 1 μM, JAK3(JH1domain-catalytic). It is filed as binding. Conditions: 1000 nM, read-out: Percent Control.
From the text: as §2

The next assay has as its target T30, EGFR(G719S) (Homo sapiens, UniProt P00533, G719S).
T30 construct: purchased Eurofins DiscoverX KINOMEscan
As to the kind of experiment: KINOMEscan binding assay at 1 μM, EGFR(G719S). Conditions: Compound Concentration 1000 nM; read-out: Percent Control.
From the text: as §2

Assay [7] addresses T13, ABL1(E255K)-phosphorylated. As to the kind of experiment: KINOMEscan at 1 μM, ABL1(E255K)-phosphorylated. The format is binding. To be noted: 1000 nM, read-out: Percent Control.
From the text: as §2

Another assay addresses T31, MEK1 (Homo sapiens, UniProt Q02750).
T31 construct: purchased Eurofins DiscoverX KINOMEscan
As to the kind of experiment: KINOMEscan at 1 μM, MEK1. To be noted: 1000 nM, read-out: Percent Control. It is filed as binding.
From the text: as §2

T6 sequence (Q9H4B4 whole entry): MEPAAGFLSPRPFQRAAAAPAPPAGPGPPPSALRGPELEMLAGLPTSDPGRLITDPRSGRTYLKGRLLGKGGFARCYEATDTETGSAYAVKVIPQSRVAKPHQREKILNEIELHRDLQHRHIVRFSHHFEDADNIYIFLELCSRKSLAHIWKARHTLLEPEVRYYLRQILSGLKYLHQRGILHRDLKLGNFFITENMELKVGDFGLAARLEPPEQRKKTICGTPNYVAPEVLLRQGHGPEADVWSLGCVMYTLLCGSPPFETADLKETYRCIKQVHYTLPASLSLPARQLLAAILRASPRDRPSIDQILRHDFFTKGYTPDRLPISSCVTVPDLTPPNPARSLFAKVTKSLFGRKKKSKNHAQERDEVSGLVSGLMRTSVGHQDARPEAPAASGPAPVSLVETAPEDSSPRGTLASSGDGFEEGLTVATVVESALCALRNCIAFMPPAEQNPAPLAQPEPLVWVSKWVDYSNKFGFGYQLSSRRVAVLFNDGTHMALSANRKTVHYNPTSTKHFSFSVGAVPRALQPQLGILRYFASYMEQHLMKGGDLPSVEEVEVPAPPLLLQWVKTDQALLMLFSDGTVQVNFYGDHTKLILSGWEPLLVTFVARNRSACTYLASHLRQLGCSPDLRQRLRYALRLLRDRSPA
T24 sequence (Q96Q40 whole entry): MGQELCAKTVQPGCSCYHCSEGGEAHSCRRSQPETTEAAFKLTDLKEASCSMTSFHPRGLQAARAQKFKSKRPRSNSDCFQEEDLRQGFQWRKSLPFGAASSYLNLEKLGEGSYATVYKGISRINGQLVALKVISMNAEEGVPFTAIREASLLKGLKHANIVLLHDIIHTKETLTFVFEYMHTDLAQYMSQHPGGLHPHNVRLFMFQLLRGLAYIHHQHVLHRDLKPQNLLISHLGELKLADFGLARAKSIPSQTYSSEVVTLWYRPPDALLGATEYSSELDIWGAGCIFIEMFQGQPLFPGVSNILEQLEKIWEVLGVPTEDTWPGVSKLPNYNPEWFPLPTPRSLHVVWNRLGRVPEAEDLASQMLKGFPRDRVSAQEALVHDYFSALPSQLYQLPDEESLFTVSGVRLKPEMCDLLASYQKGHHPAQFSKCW
T28 sequence (P04629 33-796): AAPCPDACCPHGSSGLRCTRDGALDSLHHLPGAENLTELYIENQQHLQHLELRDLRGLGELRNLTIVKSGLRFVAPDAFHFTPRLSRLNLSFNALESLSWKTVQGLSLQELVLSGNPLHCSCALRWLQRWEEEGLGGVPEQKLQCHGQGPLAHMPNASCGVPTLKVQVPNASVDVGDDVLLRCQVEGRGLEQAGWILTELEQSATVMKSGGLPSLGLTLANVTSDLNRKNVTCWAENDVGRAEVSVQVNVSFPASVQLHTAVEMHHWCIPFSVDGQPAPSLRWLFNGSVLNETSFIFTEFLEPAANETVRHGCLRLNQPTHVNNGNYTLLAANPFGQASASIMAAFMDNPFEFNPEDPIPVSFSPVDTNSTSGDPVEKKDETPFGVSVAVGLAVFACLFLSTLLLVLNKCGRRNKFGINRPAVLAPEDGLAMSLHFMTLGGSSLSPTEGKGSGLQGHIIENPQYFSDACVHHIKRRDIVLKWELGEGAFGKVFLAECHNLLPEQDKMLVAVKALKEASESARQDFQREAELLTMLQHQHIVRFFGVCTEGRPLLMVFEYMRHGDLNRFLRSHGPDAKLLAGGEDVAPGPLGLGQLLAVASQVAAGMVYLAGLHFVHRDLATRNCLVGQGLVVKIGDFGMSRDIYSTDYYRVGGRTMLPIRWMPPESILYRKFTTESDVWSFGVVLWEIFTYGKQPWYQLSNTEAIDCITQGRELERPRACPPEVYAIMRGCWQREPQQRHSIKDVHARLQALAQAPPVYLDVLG

Regarding `Cc1cccc(-c2cnc3occ(-c4ccc(C(=O)O)c(C5CCCC5)c4)c3c2)c1` [SGC-CAMKK2-1 (YL-36)], the remaining binding at 1 µM (at MKNK2; at LZK; on ZAP70; at YANK1; in [1]; on PLK3) was 100% each time. The remaining binding at 1 µM at MUSK worked out at 84%; on WNK4, 100%; at MST3, 100%; at PAK7, 100%; in assay [2] it was 100%; at SYK it was 85%. Besides, the remaining binding at 1 µM in assay [3] worked out at 98%; on TTK it was 100%; at FAK, 92%.

For `O=C(O)c1ccc(-c2coc3ncc(-c4ccccc4)cc23)cc1Cl` [SGC-CAMKK2-1N (UNC-YL-83)], the remaining binding at 1 µM in assay [4] turned out to be 100%; on p38-alpha, 79%; at PFPK5(P.falciparum), 69%; at p38-gamma it was 100%; at ITK, 100%; in assay [5] it was 82%. For the same compound, the remaining binding at 1 µM is 62% at CAMK1; 87% at BRAF(V600E); 76% on PFTAIRE2; 89% on CSF1R-autoinhibited; 100% at STK33; 100% at AKT1. The remaining binding at 1 µM at TRKA turned out to be 38%; in assay [6], 87%; on EGFR(G719S), 100%; in [7], 65%; at MEK1, 93%. In the assay with FLT3(ITD), the “Percent Control” value stood at 81.
